Assay: xn = mol fraction of the nth substance listed

OCCO + CN(C)C=O
viscosity [mPa·s]
Conditions	293.15 K	298.15 K	303.15 K	308.15 K
100 kPa, x1 = 0.1049	–	1.27	1.23	1.15
100 kPa, x1 = 0.2019	–	1.64	1.52	1.4
100 kPa, x1 = 0.3063	–	2.27	2.03	1.81
100 kPa, x1 = 0.3993	–	2.9	2.63	2.41
100 kPa, x1 = 0.4986	–	3.95	3.6	3.16
100 kPa, x1 = 0.6048	–	5.35	4.53	4.05
100 kPa, x1 = 0.7069	–	7.24	6.12	5.18
100 kPa, x1 = 0.8032	–	9.44	7.92	6.83
100 kPa, x1 = 0.9054	–	12.85	10.48	8.79
101 kPa, x1 = 0.0257	–	–	–	0.758
101 kPa, x1 = 0.0458	–	–	–	0.816
101 kPa, x1 = 0.0974	–	–	–	0.872
101 kPa, x1 = 0.1399	–	–	–	0.956
101 kPa, x1 = 0.1921	–	–	–	1.151
101 kPa, x1 = 0.2568	–	–	–	1.132
101 kPa, x1 = 0.2919	–	–	–	1.453
101 kPa, x1 = 0.3715	–	–	–	1.288
101 kPa, x1 = 0.3822	–	–	–	1.814
101 kPa, x1 = 0.4762	–	–	–	1.898
101 kPa, x1 = 0.4917	–	–	–	2.392
101 kPa, x1 = 0.5408	–	3.065	–	–
101 kPa, x1 = 0.5807	–	–	–	2.801
101 kPa, x1 = 0.5882	–	–	–	3.131
101 kPa, x2 = 0.0864	16.12	13.24	10.91	–
101 kPa, x2 = 0.1758	11.93	9.921	8.25	–
101 kPa, x2 = 0.3623	6.277	5.381	4.639	–
101 kPa, x2 = 0.5609	3.23	2.852	2.551	–
101 kPa, x2 = 0.7734	1.66	1.518	1.392	–
101 kPa, x2 = 0.8848	1.191	1.105	1.027	–
